“Also recorded” adds a separate entry of the source.
What was measured:
[1] = system: NIH3T3 cells; assay: Inhibition of TNF/Birinapant/zVAD (TSZ)-induced necroptosis, flow cytometry (annexinV / 7-AAD); format: cell-based, Murine; settings: TNF + Birinapant + z-VAD-fmk (TSZ), 18 h
Method: (§1) • Figure 1: Overview of chemical structures of different necrostatins. Structural differences between Nec-1f in comparison to known necroptosis inhibitors Nec-1 and Nec-1s. Highlighted are the main residues involved in facilitating protection from necroptosis and/or ferroptosis. • Figure 2: Biotinylation of Nec-1. Simplified scheme of linking the target molecule Nec-1 to a biotin anker. […] (A, B) Inhibition of cell death by Nec-1f in NIH3T3 cells was assessed by flow cytometry. Cells were treated with the ferroptosis inducer RSL-3 (1.13 µM) for 6 h with or without simultaneous substitution of necrostatins. The percentage of cells positive for annexinV and 7-AAD was recorded. (C, D) Viability of NIH3T3 cells after induction of ferroptosis. Cells were treated with 1.13 µM RSL-3 for 6 h and collected for flow cytometry. […] (A, B) Inhibition of necroptotic cell death by Nec-1f in NIH3T3 cells was assessed by flow cytometry. […] The percentage of cells positive for annexinV and 7-AAD was recorded. […] (A, B) After 48h mice were sacrificed and serum creatinine levels and serum urea levels were measured as markers of renal function and intoxication. […]
(§2) Phosphatidylserine exposure to the outer cell membrane of apoptotic cells or at the inner plasma membrane of necrotic cells and incorporation of 7-AAD into necrotic cells were quantified by fluorescence-activated cell sorting (FACS) analysis. […]

[2] = Murine kidney ischemia-reperfusion injury model; format: in vivo, C57BL/6 mice; settings: mice, 30 min ischemia
Method: • Figure 1: Overview of chemical structures of different necrostatins. Structural differences between Nec-1f in comparison to known necroptosis inhibitors Nec-1 and Nec-1s. Highlighted are the main residues involved in facilitating protection from necroptosis and/or ferroptosis. • Figure 2: Biotinylation of Nec-1. Simplified scheme of linking the target molecule Nec-1 to a biotin anker. […] (A, B) Inhibition of cell death by Nec-1f in NIH3T3 cells was assessed by flow cytometry. Cells were treated with the ferroptosis inducer RSL-3 (1.13 µM) for 6 h with or without simultaneous substitution of necrostatins. The percentage of cells positive for annexinV and 7-AAD was recorded. (C, D) Viability of NIH3T3 cells after induction of ferroptosis. Cells were treated with 1.13 µM RSL-3 for 6 h and collected for flow cytometry. […] (A, B) Inhibition of necroptotic cell death by Nec-1f in NIH3T3 cells was assessed by flow cytometry. Cells were treated with the TNF, Birinapant and z-VAD-fmk (TSZ) to induce necroptosis. After 18 h necroptosis induction with or without simultaneous substitution of necrostatins the cells were harvested and stained for flow cytometry. The percentage of cells positive for annexinV and 7-AAD was recorded. (C, D) Viability of NIH3T3 cells 18h after induction of necroptosis via TSZ treatment. […] Animals were subjected to 30 min of ischemia after i.p. injection of 0.6 mg Nec-1f per kg bodyweight or the respective vehicle control in PBS. (A, B) After 48h mice were sacrificed and serum creatinine levels and serum urea levels were measured as markers of renal function and intoxication. Error bars represent standard deviation. • Figure 6: Synthesis of 5-[(7-Chloro-1H-indol-3-yl)methyl]-3-methyl-2-thioxo-imidazolidin-4-one (1-3; Nec-1f) according to example 2. • Figure 7: Synthesis of 5-[(3aS,4R,6aR)-2-Oxo-1,3,3a,4,6,6a-hexahydrothieno[3,4-d]imidazol-4-yl]-N-[[1-[2-[2-[2-[[3-[(1-methyl-5-oxo-2-thioxo-imidazolidin-4-yl)methyl]-1H-indol-7-yl]oxy]ethoxy]ethoxy]ethyl]triazol-4-yl]methyl]pentanamide (2-8; biotinylated Nec-1) according to example 3. […]

[3] = system: NIH3T3 cells; assay: Inhibition of RSL-3-induced ferroptosis, flow cytometry (annexinV / 7-AAD); format: cell-based, Murine; settings: RSL-3 1.13 µM for 6 h, with simultaneous necrostatin
Method: as §1, §2

[4] = 0.6 mg Nec-1f per kg bodyweight i.p. 15 min before ischemia, 48 h after reperfusion

CN1C(=O)C(Cc2c[nH]c3c(Cl)cccc23)NC1=S (centres unmarked) [Nec-1f, 5-[(7-Chloro-1H-indol-3-yl)methyl]-3-methyl-2-thioxo-imidazolidin-4-one]
assays used to detect necroptosis (cell death / viability, annexinV and 7-AAD) [1]: protects cells from undergoing necroptosis; also recorded: reversed | protection in animal model of renal ischemia-reperfusion injury ([2]; 0.6 mg Nec-1f per kg bodyweight i.p.): protective | serum creatinine levels (marker of renal function) [2, 4]: reversed | serum urea levels (intoxication marker) [2, 4]: reversed | assays used to detect ferroptosis (cell death / viability, annexinV and 7-AAD) [3]: protects cells from undergoing ferroptosis; also recorded: reversed
